Measured values reported in paper PMC9421653 (Journal of Medicinal Chemistry, 2022).
In brackets after ≈: the same amount, converted by molar mass.

Tests used:
human GPR84 [1] = target: T1, human GPR84 (Homo sapiens, UniProt P04899+Q9NQS5); experiment: biochemical; type: biochemical; conditions: [35S]GTPγS assay; negative log of the IC50 in molar; mean ± SEM
T1 construct: expressed in transfected cells; host or cells: Flp-In T-REx 293 cells, doxycycline-induced; membrane preparations

human GPR84 [2] = target: T2, human GPR84 (Homo sapiens, UniProt Q9NQS5); experiment: biochemical; type: biochemical; conditions: [35S]GTPγS assay; negative log of the IC50 in molar; mean ± SEM; read-out: GTPγS (pIC50) (converted)
T2 construct: expressed in transfected cells; host or cells: Flp-In T-REx 293 cells, doxycycline-induced; membrane preparations

physchem = conditions: pH 7.4, Kinetic Solubility
Description: DPI = 4,5-Diphenylimidazole
(2 pictures or pasted objects on this page, not shown here)

[3] = Mean, PBS pH7.4 in 2% DMSO by LC-MS
[4] = Mean, PBS pH7.4 in 2% DMSO by plate reader
[5] = R=1, PBS pH7.4 in 2% DMSO by LC-MS, replicate 1
[6] = R=1, PBS pH7.4 in 2% DMSO by plate reader, replicate 1
[7] = R=2, PBS pH7.4 in 2% DMSO by LC-MS, replicate 2
[8] = R=2, PBS pH7.4 in 2% DMSO by plate reader, replicate 2

T2 sequence (Q9NQS5+P04899 fused): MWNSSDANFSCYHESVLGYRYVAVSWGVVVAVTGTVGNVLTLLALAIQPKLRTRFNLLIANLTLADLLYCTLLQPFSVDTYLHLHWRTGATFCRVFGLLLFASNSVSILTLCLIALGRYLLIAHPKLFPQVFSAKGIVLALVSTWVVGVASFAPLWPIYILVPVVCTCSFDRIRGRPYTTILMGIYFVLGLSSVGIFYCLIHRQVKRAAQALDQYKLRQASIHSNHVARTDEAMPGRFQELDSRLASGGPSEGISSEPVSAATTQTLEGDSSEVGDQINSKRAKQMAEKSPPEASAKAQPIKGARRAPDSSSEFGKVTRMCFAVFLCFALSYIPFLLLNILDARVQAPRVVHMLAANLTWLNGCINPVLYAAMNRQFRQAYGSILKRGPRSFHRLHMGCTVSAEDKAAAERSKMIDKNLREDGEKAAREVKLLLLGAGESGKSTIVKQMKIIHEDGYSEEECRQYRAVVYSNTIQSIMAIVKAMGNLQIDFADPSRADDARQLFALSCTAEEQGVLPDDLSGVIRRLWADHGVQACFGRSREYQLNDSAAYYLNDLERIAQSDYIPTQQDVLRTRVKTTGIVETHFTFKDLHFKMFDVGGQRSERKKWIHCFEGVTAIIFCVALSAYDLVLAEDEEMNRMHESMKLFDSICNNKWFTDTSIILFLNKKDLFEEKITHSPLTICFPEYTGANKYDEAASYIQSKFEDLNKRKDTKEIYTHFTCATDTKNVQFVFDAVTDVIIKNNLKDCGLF
T1 sequence (Q9NQS5+P04899 fused): as above

| Compound | GTPγS (pIC50) (human GPR84 [1]) | further results |
| --- | --- | --- |
| c1ccc(-c2nnc(Cc3c[nH]c4cnccc34)nc2-c2ccnnc2)cc1 [Compound 61, 3-((6-Phenyl-5-(pyridazin-4-yl)-1,2,4-triazin-3-yl)methyl)-1H-pyrrolo[2,3-c]pyridine] | 5.84 ± 0.10 |  |
| c1ccc(-c2nc(Cc3c[nH]c4cnccc34)nnc2-c2ccnnc2)cc1 [Compound 62, 3-((5-Phenyl-6-(pyridazin-4-yl)-1,2,4-triazin-3-yl)methyl)-1H-pyrrolo[2,3-c]pyridine] | 6.21 ± 0.04 |  |
| c1ccc(-c2nnc(Cc3c[nH]c4cnccc34)nc2-c2ccc(CN3CCOCC3)cc2)cc1 [Compound 63, 4-(4-(3-((1H-Pyrrolo[2,3-c]pyridin-3-yl)methyl)-6-phenyl-1,2,4-triazin-5-yl)benzyl)morpholine] | 7.27 ± 0.06 |  |
| c1ccc(-c2nc(Cc3c[nH]c4cnccc34)nnc2-c2ccc(CN3CCOCC3)cc2)cc1 [Compound 64, 4-(4-(3-((1H-Pyrrolo[2,3-c]pyridin-3-yl)methyl)-5-phenyl-1,2,4-triazin-6-yl)benzyl)morpholine] | 8.33 ± 0.15 |  |
| COC(=O)c1ccc(-c2nc(Cc3c[nH]c4cnccc34)nnc2-c2ccccc2)cc1 [Compound 65, Methyl 4-(3-((1H-Pyrrolo[2,3-c]pyridin-3-yl)methyl)-6-phenyl-1,2,4-triazin-5-yl)benzoate] | 7.37 ± 0.33 |  |
| COC(=O)c1ccc(-c2nnc(Cc3c[nH]c4cnccc34)nc2-c2ccccc2)cc1 [Compound 66, Methyl 4-(3-((1H-Pyrrolo[2,3-c]pyridin-3-yl)methyl)-5-phenyl-1,2,4-triazin-6-yl)benzoate] | 7.02 ± 0.06 |  |
| CNC(=O)c1ccc(-c2nc(Cc3c[nH]c4cnccc34)nnc2-c2ccccc2)cc1 [Compound 67, 4-(3-((1H-Pyrrolo[2,3-c]pyridin-3-yl)methyl)-6-phenyl-1,2,4-triazin-5-yl)-N-methylbenzamide] | 6.48 ± 0.04 |  |
| O=C(NCCO)c1ccc(-c2nc(Cc3c[nH]c4cnccc34)nnc2-c2ccccc2)cc1 [Compound 69, 4-(3-((1H-Pyrrolo[2,3-c]pyridin-3-yl)methyl)-6-phenyl-1,2,4-triazin-5-yl)-N-(2-hydroxyethyl)benzamide] | 6.84 ±0.05 |  |
| O=C(NCCO)c1ccc(-c2nnc(Cc3c[nH]c4cnccc34)nc2-c2ccccc2)cc1 [Compound 70, 4-(3-((1H-Pyrrolo[2,3-c]pyridin-3-yl)methyl)-5-phenyl-1,2,4-triazin-6-yl)-N-(2-hydroxyethyl)benzamide] | 7.04 ± 0.07 |  |
| CNC(=O)c1ccc(-c2nc(Cc3c[nH]c4ccncc34)nnc2-c2ccccc2)cc1 [Compound 71, 4-(3-((1H-Pyrrolo[3,2-c]pyridin-3-yl)methyl)-6-phenyl-1,2,4-triazin-5-yl)-N-methylbenzamide] | 5.64 ± 0.05 |  |
| CNC(=O)c1ccc(-c2nnc(Cc3c[nH]c4ccncc34)nc2-c2ccccc2)cc1 [Compound 72, 4-(3-((1H-Pyrrolo[3,2-c]pyridin-3-yl)methyl)-5-phenyl-1,2,4-triazin-6-yl)-N-methylbenzamide] | 6.35 ± 0.06 |  |
| CNC(=O)c1ccc(-c2nnc(Cc3c[nH]c4ccccc34)nc2-c2ccccc2)cc1 [Compound 73, 4-(3-((1H-Indol-3-yl)methyl)-5-phenyl-1,2,4-triazin-6-yl)-N-methylbenzamide] | 7.18 ± 0.09 |  |
| O=C(c1ccc(-c2nnc(Cc3c[nH]c4ccccc34)nc2-c2ccccc2)cc1)N1CCOCC1 [Compound 74, (4-(3-((1H-Indol-3-yl)methyl)-5-phenyl-1,2,4-triazin-6-yl)phenyl)(morpholino)methanone] | 7.19 ± 0.07 |  |
| CN(C)CCNC(=O)c1ccc(-c2nnc(Cc3c[nH]c4ccccc34)nc2-c2ccccc2)cc1 [Compound 75, 4-(3-((1H-Indol-3-yl)methyl)-5-phenyl-1,2,4-triazin-6-yl)-N-(2-(dimethylamino)ethyl)benzamide] | 5.54 ± 0.10 |  |
| CN1CCN(C(=O)c2ccc(-c3nnc(Cc4c[nH]c5ccccc45)nc3-c3ccccc3)cc2)CC1 [Compound 77, (4-(3-((1H-Indol-3-yl)methyl)-5-phenyl-1,2,4-triazin-6-yl)phenyl)(4-methylpiperazin-1-yl)methanone] | 5.95 ± 0.10 |  |
| CC(=O)NCCNC(=O)c1ccc(-c2nnc(Cc3c[nH]c4ccccc34)nc2-c2ccccc2)cc1 [Compound 79, 4-(3-((1H-Indol-3-yl)methyl)-5-phenyl-1,2,4-triazin-6-yl)-N-(2-acetamidoethyl)benzamide] | 6.26 ± 0.06 |  |
| CN1CCN(C(=O)c2ccc(-c3nnc(Cc4c[nH]c5ccccc45)nc3-c3ccccc3)cc2)CC1=O [Compound 80, 4-(4-(3-((1H-Indol-3-yl)methyl)-5-phenyl-1,2,4-triazin-6-yl)benzoyl)-1-methylpiperazin-2-one] | 6.69 ± 0.04 |  |
| NC(=O)CNC(=O)c1ccc(-c2nnc(Cc3c[nH]c4ccccc34)nc2-c2ccccc2)cc1 [Compound 81, 4-(3-((1H-Indol-3-yl)methyl)-5-phenyl-1,2,4-triazin-6-yl)-N-(2-amino-2-oxoethyl)benzamide] | 5.80 ± 0.11 |  |
| O=C(c1ccc(-c2nc(Cc3c[nH]c4ccccc34)nnc2-c2ccccc2)cc1)N1CCOCC1 [Compound 83, (4-(3-((1H-Indol-3-yl)methyl)-6-phenyl-1,2,4-triazin-5-yl)phenyl)(morpholino)methanone] |  | IC50 (human GPR84 [2]): 209 nM |
| CN(C)CCNC(=O)c1ccc(-c2nc(Cc3c[nH]c4ccccc34)nnc2-c2ccccc2)cc1 [Compound 84, 4-(3-((1H-Indol-3-yl)methyl)-6-phenyl-1,2,4-triazin-5-yl)-N-(2-(dimethylamino)ethyl)benzamide] |  | IC50 (human GPR84 [2]): 1000 nM |
| O=C(NCCO)c1ccc(-c2nc(Cc3c[nH]c4ccccc34)nnc2-c2ccccc2)cc1 [Compound 85, 4-(3-((1H-Indol-3-yl)methyl)-6-phenyl-1,2,4-triazin-5-yl)-N-(2-hydroxyethyl)benzamide] |  | IC50 (human GPR84 [2]): 28.8 nM |
| c1ccc(-c2nc[nH]c2-c2ccccc2)cc1 [DPI, 4,5-Diphenylimidazole, reference compound] |  | solubility kinetic (physchem; [3]): 27 µM (≈ 5.95 µg/mL); solubility kinetic (physchem; [4]): 30 µM (≈ 6.61 µg/mL); solubility kinetic (physchem; [5]): 25 µM (≈ 5.51 µg/mL); solubility kinetic (physchem; [6]): 28 µM (≈ 6.17 µg/mL); solubility kinetic (physchem; [7]): 28 µM (≈ 6.17 µg/mL); solubility kinetic (physchem; [8]): 32 µM (≈ 7.05 µg/mL) |
| CC(=O)N1CCN(c2ccc(OCC3COC(Cn4ccnc4)(c4ccc(Cl)cc4Cl)O3)cc2)CC1 (centres unmarked) [Ketoconazole, reference compound] |  | solubility kinetic (physchem; [3]): 103 µM (≈ 54.7 µg/mL); solubility kinetic (physchem; [4]): 129 µM (≈ 68.6 µg/mL); solubility kinetic (physchem; [5]): 101 µM (≈ 53.7 µg/mL); solubility kinetic (physchem; [6]): 128 µM (≈ 68 µg/mL); solubility kinetic (physchem; [7]): 105 µM (≈ 55.8 µg/mL); solubility kinetic (physchem; [8]): 129 µM (≈ 68.6 µg/mL) |
| Methyl 3-(3-((1H-Indol-3-yl)methyl)-5-phenyl-1,2,4-triazin-6-yl)benzoate [Compound 53] | 6.40 ± 0.05 |  |
| Methyl 3-(3-((1H-Indol-3-yl)methyl)-6-phenyl-1,2,4-triazin-5-yl)benzoate [Compound 54] | 6.94 ± 0.03 |  |
